Laboratory results taken from PubChem BioAssay (NCI).
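Following 48 hours of exposure in 96-well plates, responses at five concentrations were used to interpolate endpoints linearly. The concentration for full growth arrest is given as TGI.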

Key:
Experiment in all cases: NCI tumour cell line growth inhibition, 48 h
COLO 205 colon = tested on: COLO 205 colon
HCC-2998 colon = tested on: HCC-2998 colon
K-562 leukemia = tested on: K-562 leukemia
M14 melanoma = tested on: M14 melanoma
MCF7 breast = tested on: MCF7 breast
MDA-MB-435 = tested on: MDA-MB-435
RXF 393 renal = tested on: RXF 393 renal
SK-MEL-28 melanoma = tested on: SK-MEL-28 melanoma
SN12C renal = tested on: SN12C renal
T-47D breast = tested on: T-47D breast

SMILES | TGI (COLO 205 colon) [µM] | TGI (HCC-2998 colon) [µM] | TGI (K-562 leukemia) [µM] | TGI (M14 melanoma) [µM] | TGI (MCF7 breast) [µM] | TGI (MDA-MB-435) [µM] | TGI (RXF 393 renal) [µM] | TGI (SK-MEL-28 melanoma) [µM] | TGI (SN12C renal) [µM] | TGI (T-47D breast) [µM]
O=C(CCCc1cccc2[nH]c3c(c12)CN(Cc1ccccc1)CC3)c1ccc(F)cc1 | 31.4 | 38.5 | > 100 | > 100 | > 100 | > 100 | > 100 | > 100 | > 100 | > 58.7
COc1ccc(SCc2cc(OC)ccc2OC)cc1 | > 61 | 37 | > 51.3 | > 100 | > 100 | 13 | > 100 | > 100 | > 100 | > 100
CCC1c2[nH]c3ccccc3c2C[C@H]2C(=O)NC(C)C(=O)N12 (stereo not given in full) | > 100 | > 100 | > 100 | > 100 | > 100 | > 100 | > 100 | > 100 | > 100 | > 100
CCC1(O)C(=O)OCc2c1cc1n(c2=O)Cc2cc3cc4c(cc3nc2-1)OCO4 (stereo not given) | 1.79 | 0.396 | > 100 | 0.0632 | > 12.8 | 9.1 | 0.0578 | 18.9 | 4.1 | > 100
Cc1ccc([N+](=O)[O-])cc1S(=O)(=O)Nc1ccc(C2=NN(S(=O)(=O)c3cc([N+](=O)[O-])ccc3C)C(c3cccs3)C2)cc1 (stereo not given) | 25.3 | 56.6 | 88.3 | > 100 | 82.1 | > 100 | > 100 | > 100 | > 100 | > 100
C(=N\NC1=NCCCCN1)/c1ccc2ccccc2c1 | 31.5 | 30.3 | 40.2 | 28 | 70.4 | 34.7 | 60.8 | 40.4 | > 100 | 62
CCO/N=C\c1ccc2oc(-c3ccccc3)cc(=O)c2c1 | 0.526 | 6.08 | > 100 | > 31.6 | 18 | 2.49 | 11.6 | > 100 | 11.5 | 63.6
CC1=C(C)C(=O)OC(C(C)(O)C2(O)CC3OC34C3CC(O)C56OC5C=CC(=O)C6(C)C3CCC42C)C1 (stereo not given) | > 29 | 2.73 | > 100 | 12.6 | > 39.3 | 4.62 | 6.68 | 4.24 | 14.4 | > 43.3
C/C(Cc1ccc2c(c1)OCO2)=N\N=c1\sc2ccccc2n1C | > 100 | > 100 | > 100 | > 100 | > 100 | > 100 | > 100 | > 100 | > 100 | > 100
O=[N+]([O-])c1ccc2c(c1)nc1n2C(c2c(F)cccc2F)SC1 (stereo not given) | > 100 | > 100 | > 100 | > 100 | > 100 | > 100 | > 100 | > 100 | > 100 | > 100
N=C1OC(CN2CCN(c3ccccc3)CC2)CN1C(=O)Nc1ccccc1 (stereo not given) | > 100 | > 100 | > 100 | > 100 | > 100 | > 100 | > 100 | > 100 | > 100 | > 100
NCCCn1c(Cl)nc2ccccc21 | > 100 | > 100 | > 100 | > 100 | > 100 | > 100 | > 100 | > 100 | > 100 | > 100
